{"source": "PubChem BioAssay AID1963835", "about": "(Molecular Pharmacology Branch, DTP, NCI, 2024);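 also: spheroids exposed to agents for 7 days before viability reading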;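 as to viability, T/C: percent of DMSO vehicle control viability so 100% = vehicle and 0% = no viable signal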", "system": "699152-130-R-J1-PDC complex spheroid viability", "test": "Anticancer human tumor 699152-130-R-J1-PDC patient-derived pancreatic carcinoma cell line growth inhibition [POLQ]", "settings": "for IC50: curve of first compound; for viability, T/C: stronger effect = lower value", "how_it_was_run": "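PDC + HUVEC + MSC complex spheroids; POLQ inhibitors ± partner drugs; top conc. at/near clinical Cmax, else 10 microM (SN-38 1 microM), half-log dilutions; 37 degrees C, 5% CO2.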", "data": [{"smiles": "CC(=O)O[C@H]1C(=O)[C@@]2(C)[C@H]([C@H](OC(=O)c3ccccc3)[C@]3(O)C[C@H](OC(=O)[C@H](O)[C@@H](NC(=O)c4ccccc4)c4ccccc4)C(C)=C1C3(C)C)[C@]1(OC(C)=O)CO[C@@H]1C[C@@H]2O", "note": "+ Cc1cccc(N(C)C(=O)C2C(O)CCN2c2nc(C)cc(C(F)(F)F)c2C#N)c1", "values": [{"measurement": "IC50", "setting": "second compound 0.0316 µM", "value": "> 3", "unit": "µM"}, {"measurement": "IC50", "setting": "second compound 0.1 µM", "value": "> 3", "unit": "µM"}, {"measurement": "IC50", "setting": "second compound 0.316 µM", "value": "> 3", "unit": "µM"}, {"measurement": "IC50", "setting": "second compound 1 µM", "value": "> 3", "unit": "µM"}, {"measurement": "IC50", "setting": "second compound 3.16 µM", "value": "> 3", "unit": "µM"}, {"measurement": "IC50", "setting": "second compound 10 µM", "value": "> 3", "unit": "µM"}, {"measurement": "viability, T/C", "setting": "second compound 0.0316 µM, first compound 0.00949 µM", "value": 83.5, "unit": "%"}, {"measurement": "viability, T/C", "setting": "second compound 0.0316 µM, first compound 0.03 µM", "value": 57.6, "unit": "%"}, {"measurement": "viability, T/C", "setting": "second compound 0.0316 µM, first compound 0.0949 µM", "value": 56.1, "unit": "%"}, {"measurement": "viability, T/C", "setting": "second compound 0.0316 µM, first compound 0.3 µM", "value": 56.9, "unit": "%"}, {"measurement": "viability, T/C", "setting": "second compound 0.0316 µM, first compound 0.949 µM", "value": 67, "unit": "%"}, {"measurement": "viability, T/C", "setting": "second compound 0.0316 µM, first compound 3 µM", "value": 65.9, "unit": "%"}, {"measurement": "viability, T/C", "setting": "second compound 0.1 µM, first compound 0.00949 µM", "value": 79.7, "unit": "%"}, {"measurement": "viability, T/C", "setting": "second compound 0.1 µM, first compound 0.03 µM", "value": 57.1, "unit": "%"}, {"measurement": "viability, T/C", "setting": "second compound 0.1 µM, first compound 0.0949 µM", "value": 51, "unit": "%"}, {"measurement": "viability, T/C", "setting": "second compound 0.1 µM, first compound 0.3 µM", "value": 57.7, "unit": "%"}, {"measurement": "viability, T/C", "setting": "second compound 0.1 µM, first compound 0.949 µM", "value": 72.2, "unit": "%"}, {"measurement": "viability, T/C", "setting": "second compound 0.1 µM, first compound 3 µM", "value": 64.9, "unit": "%"}, {"measurement": "viability, T/C", "setting": "second compound 0.316 µM, first compound 0.00949 µM", "value": 74.5, "unit": "%"}, {"measurement": "viability, T/C", "setting": "second compound 0.316 µM, first compound 0.03 µM", "value": 60.9, "unit": "%"}, {"measurement": "viability, T/C", "setting": "second compound 0.316 µM, first compound 0.0949 µM", "value": 53.3, "unit": "%"}, {"measurement": "viability, T/C", "setting": "second compound 0.316 µM, first compound 0.3 µM", "value": 59.4, "unit": "%"}, {"measurement": "viability, T/C", "setting": "second compound 0.316 µM, first compound 0.949 µM", "value": 64.9, "unit": "%"}, {"measurement": "viability, T/C", "setting": "second compound 0.316 µM, first compound 3 µM", "value": 64.1, "unit": "%"}, {"measurement": "viability, T/C", "setting": "second compound 1 µM, first compound 0.00949 µM", "value": 81.2, "unit": "%"}, {"measurement": "viability, T/C", "setting": "second compound 1 µM, first compound 0.03 µM", "value": 54.8, "unit": "%"}, {"measurement": "viability, T/C", "setting": "second compound 1 µM, first compound 0.0949 µM", "value": 57.9, "unit": "%"}, {"measurement": "viability, T/C", "setting": "second compound 1 µM, first compound 0.3 µM", "value": 61.3, "unit": "%"}, {"measurement": "viability, T/C", "setting": "second compound 1 µM, first compound 0.949 µM", "value": 62.4, "unit": "%"}, {"measurement": "viability, T/C", "setting": "second compound 1 µM, first compound 3 µM", "value": 71.8, "unit": "%"}, {"measurement": "viability, T/C", "setting": "second compound 3.16 µM, first compound 0.00949 µM", "value": 82.8, "unit": "%"}, {"measurement": "viability, T/C", "setting": "second compound 3.16 µM, first compound 0.03 µM", "value": 62.1, "unit": "%"}, {"measurement": "viability, T/C", "setting": "second compound 3.16 µM, first compound 0.0949 µM", "value": 58.8, "unit": "%"}, {"measurement": "viability, T/C", "setting": "second compound 3.16 µM, first compound 0.3 µM", "value": 65.2, "unit": "%"}, {"measurement": "viability, T/C", "setting": "second compound 3.16 µM, first compound 0.949 µM", "value": 69.7, "unit": "%"}, {"measurement": "viability, T/C", "setting": "second compound 3.16 µM, first compound 3 µM", "value": 79.1, "unit": "%"}, {"measurement": "viability, T/C", "setting": "second compound 10 µM, first compound 0.00949 µM", "value": 84, "unit": "%"}, {"measurement": "viability, T/C", "setting": "second compound 10 µM, first compound 0.03 µM", "value": 57, "unit": "%"}, {"measurement": "viability, T/C", "setting": "second compound 10 µM, first compound 0.0949 µM", "value": 69.1, "unit": "%"}, {"measurement": "viability, T/C", "setting": "second compound 10 µM, first compound 0.3 µM", "value": 65.9, "unit": "%"}, {"measurement": "viability, T/C", "setting": "second compound 10 µM, first compound 0.949 µM", "value": 72.1, "unit": "%"}, {"measurement": "viability, T/C", "setting": "second compound 10 µM, first compound 3 µM", "value": 82.8, "unit": "%"}]}]}
